Here are results for 15 compounds from the supplement of paper PMC9701192.

Holding throughout (experiment): mass response relative to vehicle control (EMD distance of treated vs reference mass distribution minus control baseline) (% of mean reference cell mass); higher = larger drug-induced change in single-cell mass distribution (stronger response)
One assay concerns MOLM-13. The protocol: (§1)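 Cancer cell lines were treated in vitro with drugs at the listed doses (about 24 h; 0.25% DMSO vehicle). Single-cell buoyant mass was measured on suspended microchannel resonator instruments with CNN image curation, 2500 cells per condition. Mass response is the Earth Mover's Distance to vehicle-treated reference cells as % of mean reference mass.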
Another assay concerns PC9. The protocol:
as §1

In another assay the test system is MDA-MB-361. As for the experimental part:
as §1

The next assay has as its system MM1S ATCC. As for the experimental part: as §1

± gives the uncertainty stated by the source.

Turning to `Nc1ncn([C@@H]2O[C@H](CO)[C@@H](O)[C@H]2O)c(=O)n1` [5-Azacytidine], the mass response in the assay on MOLM-13 (0.1 µM) came out at 1.27 ± 0.26; in the assay on MOLM-13 (1 µM), 10.1 ± 1.9; with MOLM-13 (10 µM) it was 35.2 ± 2.8; with MOLM-13 (0.0001 M) it was 36.45 ± 0.22.

As for `CN(C)C/C=C/C(=O)Nc1cc2c(Nc3ccc(F)c(Cl)c3)ncnc2cc1O[C@H]1CCOC1` [Afatinib], the mass response is 13.3 ± 4 in the assay on PC9 (0.01 µM), 15.8 ± 1.3 in the assay on PC9 (0.1 µM), 19.1 ± 1.6 with PC9 (1 µM) and 30.7 ± 4 with PC9 (10 µM).

Turning to `Cc1nc(NC(=O)N2CCC[C@H]2C(N)=O)sc1-c1ccnc(C(C)(C)C(F)(F)F)c1` [Alpelisib], the mass response in the assay with MDA-MB-361 (0.05 µM) turned out to be 7.91 ± 1.6; with MDA-MB-361 (0.5 µM), 16.4 ± 0.24; with MDA-MB-361 (5 µM), 39.9 ± 5.9; with MDA-MB-361 (50 µM) it was 62.6 ± 1.8.

For `COc1cc(N2CCC(N3CCN(C)CC3)CC2)ccc1Nc1ncc(Cl)c(Nc2ccccc2P(C)(C)=O)n1` [Brigatinib], the mass response in the assay on PC9 (0.1 µM) turned out to be 1.59 ± 3.9; in the assay with PC9 (0.5 µM), 22.4 ± 1.5; with PC9 (1 µM), 33.6 ± 2.4; with PC9 (10 µM), 51.3 ± 5.4.

In the case of `O=C(O)C1(C(=O)O)CCC1.[NH2-].[NH2-].[Pt+2]` [Carboplatin], the mass response was -0.849 ± 1.3 in the assay with PC9 (0.1 µM), 1.45 ± 5.4 in the assay with PC9 (1 µM), 11.1 ± 3.2 in the assay with PC9 (10 µM) and 25.9 ± 5.4 in the assay with PC9 (0.0001 M).

On to `CC(C)C[C@H](NC(=O)[C@H](CCc1ccccc1)NC(=O)CN1CCOCC1)C(=O)N[C@@H](Cc1ccccc1)C(=O)N[C@@H](CC(C)C)C(=O)[C@@]1(C)CO1` [Carfilzomib], for which the mass response in the assay with MM1S ATCC (0.005 µM) is 10.7 ± 4.9; in the assay on MM1S ATCC (0.05 µM), 31 ± 2.6; in the assay with MM1S ATCC (0.1 µM) it was 34.7 ± 2; in the assay with MM1S ATCC (0.5 µM) it was 33.4 ± 2.5.

Regarding `N.N.[Cl][Pt][Cl]` [Cisplatin], the mass response with MDA-MB-361 (10 µM) was determined as 3.9 ± 9.3; with MDA-MB-361 (20 µM), 2.2 ± 2.3; in the assay with MDA-MB-361 (50 µM) it was 4.96 ± 1.6; with MDA-MB-361 (0.0001 M), 19.4 ± 2.7.

As to `CC1(COc2ccc3c(c2)ncn3-c2ccc3cccc(N4CCC(N)CC4)c3n2)COC1` [Crenolanib], the mass response was determined as 3.34 ± 2 in the assay with MOLM-13 (0.001 µM), 31 ± 1.7 with MOLM-13 (0.01 µM), 37.3 ± 0.76 with MOLM-13 (0.1 µM) and 37.99 ± 0.31 in the assay with MOLM-13 (1 µM).

Regarding `COc1cc2ncnc(Nc3ccc(F)c(Cl)c3)c2cc1NC(=O)/C=C/CN1CCCCC1` [Dacomitinib], the mass response with PC9 (0.5 µM) was 14.47 ± 0.087; with PC9 (5 µM), 25.2 ± 0.96; with PC9 (20 µM) it was 55.6 ± 1.2; with PC9 (50 µM), 62.57 ± 0.055.

Turning to `COc1cccc2c1C(=O)c1c(O)c3c(c(O)c1C2=O)C[C@@](O)(C(C)=O)C[C@@H]3O[C@H]1C[C@H](N)[C@H](O)[C@H](C)O1` [Daunorubicin], the mass response with MOLM-13 (0.01 µM) came to 3.77 ± 1.2; with MOLM-13 (0.1 µM) it was 22.3 ± 2.7; in the assay on MOLM-13 (1 µM), 31.1 ± 1.9; in the assay with MOLM-13 (10 µM), 45.8 ± 2.6.

For the compound `Nc1ncn([C@H]2C[C@H](O)[C@@H](CO)O2)c(=O)n1` [Decitabine], the mass response worked out at 7.58 ± 1.9 in the assay with MOLM-13 (0.25 µM), 9.65 ± 3.3 in the assay on MOLM-13 (2.5 µM), 9.39 ± 2.4 with MOLM-13 (25 µM) and 8.64 ± 2.2 with MOLM-13 (0.00025 M).

In the case of `C[C@@H]1C[C@H]2[C@@H]3CCC4=CC(=O)C=C[C@]4(C)[C@@]3(F)[C@@H](O)C[C@]2(C)[C@@]1(O)C(=O)CO` [Dexamethasone], the mass response in the assay on MM1S ATCC (0.02 µM) was found to be 13.7 ± 1.9; in the assay on MM1S ATCC (0.2 µM), 14.8 ± 2.1; in the assay with MM1S ATCC (2 µM) it was 14.5 ± 2; with MM1S ATCC (20 µM), 13.5 ± 2.

For `CC(=O)O[C@@]12CO[C@@H]1C[C@H](O)[C@@]1(C)C(=O)[C@H](O)C3=C(C)[C@@H](OC(=O)[C@H](O)[C@@H](NC(=O)OC(C)(C)C)c4ccccc4)C[C@@](O)([C@@H](OC(=O)c4ccccc4)[C@H]21)C3(C)C` [Docetaxel], the mass response was found to be 0.63 ± 3.4 in the assay with PC9 (0.001 µM), 5.56 ± 2.2 in the assay on PC9 (0.0025 µM), 12.4 ± 1.8 in the assay with PC9 (0.005 µM) and 25.2 ± 4.1 in the assay on PC9 (0.01 µM).

Take `COc1cccc2c1C(=O)c1c(O)c3c(c(O)c1C2=O)C[C@@](O)(C(=O)CO)C[C@@H]3O[C@H]1C[C@H](N)[C@H](O)[C@H](C)O1` [Doxorubicin]: the mass response in the assay with PC9 (0.15 µM) was found to be 33.3 ± 6.1; in the assay on PC9 (0.625 µM), 22.9 ± 4.7; in the assay on PC9 (2.5 µM) it was 6.7 ± 3; in the assay with PC9 (10 µM), 40.9 ± 3.2.

With `C#Cc1cccc(Nc2ncnc3cc(OCCOC)c(OCCOC)cc23)c1` [Erlotinib], the mass response in the assay with PC9 (0.01 µM) was determined as 0.55 ± 1.1; with PC9 (0.1 µM) it was 15.4 ± 1.5; with PC9 (1 µM) it was 17.2 ± 0.41; with PC9 (10 µM), 24.6 ± 1.6.
